How the values were obtained:
Assay in all cases: relative viability (nuclei count vs DMSO), 5 days (fraction); higher = more cells survive
[1] = compound: CC[C@H](C)N1C=C(C2=C(C=C(C=C21)C3=CN=C(C=C3)N4CCNCC4)C(=O)NCC5=C(C=C(NC5=O)C)C)C [GSK126] + C[C@@H](Oc1cc(-c2cnn(C3CCNCC3)c2)cnc1N)c1c(Cl)ccc(F)c1Cl [Crizotinib] (partner 1 µM)
How it was run: (§1)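 Medians of duplicate plates are given as relative viability. That measure is the nuclei count in treated wells divided by the count in vehicle wells. Counts were taken on 4× images of lung cancer cell lines in 1536-well plates, 5 days after pin-tool dosing the day after seeding with one drug alone or a fixed anchor-drug dose plus five library-drug doses (not always all listed) in √10 steps.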

[2] = compound: NS(=O)(=O)OC[C@@H]1C[C@@H](n2ccc3c(N[C@H]4CCc5ccccc54)ncnc32)C[C@@H]1O [MLN4924] + Cc1nc(Nc2ncc(C(=O)Nc3c(C)cccc3Cl)s2)cc(N2CCN(CCO)CC2)n1 [Dasatinib] (partner 0.075 µM)
How it was run: as §1

[3] = compound: CC[C@H](C)N1C=C(C2=C(C=C(C=C21)C3=CN=C(C=C3)N4CCNCC4)C(=O)NCC5=C(C=C(NC5=O)C)C)C [GSK126] + CS(=O)(=O)CCNCc1ccc(-c2ccc3ncnc(Nc4ccc(OCc5cccc(F)c5)c(Cl)c4)c3c2)o1 [Lapatinib] (partner 2 µM)
How it was run: as §1

Row | Cell Line | relative viability ([1]; first compound 0.08 µM) | relative viability ([1]; first compound 0.253 µM) | relative viability ([1]; first compound 0.8 µM) | relative viability ([1]; first compound 2.53 µM) | relative viability ([1]; first compound 8 µM) | relative viability ([2]; first compound 0.04 µM) | relative viability ([2]; first compound 0.1265 µM) | relative viability ([2]; first compound 0.4 µM) | relative viability ([2]; first compound 1.265 µM) | relative viability ([2]; first compound 4 µM) | relative viability ([3]; first compound 0.08 µM) | relative viability ([3]; first compound 0.253 µM) | relative viability ([3]; first compound 0.8 µM) | relative viability ([3]; first compound 2.53 µM) | relative viability ([3]; first compound 8 µM)
1 | NCI-H2228 | 0.547 | 0.492 | 0.368 | 0.573 | 0.458 | 0.524 | 0.638 | 0.14 | 0.107 | 0.11 | 1.11 | 1.15 | 1.06 | 1.16 | 1.33
2 | HCC-78 | 0.306 | 0.326 | 0.318 | 0.328 | 0.374 | 0.412 | 0.307 | 0.604 | 0.314 | 0.152 | 0.713 | 1.06 | 0.886 | 0.711 | 0.722
3 | CAL-12T | 0.805 | 0.67 | 0.699 | 0.398 | 0.441 | 0.371 | 0.336 | 0.332 | 0.143 | 0.105 | 0.63 | 0.674 | 0.615 | 0.809 | 0.644
4 | SK-LU-1 | 1.01 | 0.935 | 0.949 | 1.13 | 1.06 | 0.217 | 0.249 | 0.12 | 0.117 | 0.141 | 0.91 | 0.882 | 0.889 | 0.913 | 0.818
5 | LU99A | 0.649 | 0.545 | 0.537 | 0.543 | 0.525 | 0.507 | 0.485 | 0.321 | 0.132 | 0.16 | 1.07 | 1 | 0.913 | 1 | 0.99
6 | RERF-LC-KJ | 0.841 | 0.896 | 0.826 | 0.785 | 0.838 | 0.717 | 0.661 | 0.266 | 0.206 | 0.242 | 0.927 | 0.854 | 0.822 | 0.889 | 0.867
7 | NCI-H2126 | 1.07 | 1.04 | 1.05 | 0.992 | 0.987 | 0.647 | 0.617 | 0.55 | 0.201 | 0.23 | 0.758 | 0.792 | 0.726 | 0.819 | 0.782
8 | LXF-289 | 0.821 | 0.786 | 0.799 | 0.739 | 0.8 | 0.215 | 0.203 | 0.251 | 0.0849 | 0.0735 | 0.92 | 0.84 | 0.894 | 0.885 | 0.881
9 | BEN | 0.892 | 0.87 | 0.832 | 0.823 | 0.671 | 0.309 | 0.252 | 0.198 | 0.155 | 0.146 | 0.818 | 0.826 | 0.756 | 0.799 | 0.811
10 | NCI-H1993 | 0.912 | 0.768 | 0.924 | 0.865 | 0.941 | 0.622 | 0.524 | 0.557 | 0.491 | 0.51 | 0.884 | 0.737 | 0.753 | 0.821 | 0.712
11 | SW 1573 | 0.868 | 0.82 | 0.751 | 0.84 | 0.785 | 0.697 | 0.634 | 0.247 | 0.0507 | 0.0578 | 1.09 | 1.07 | 0.989 | 1.27 | 1.28
12 | NCI-H520 | 0.885 | 0.62 | 0.644 | 0.747 | 0.642 | 0.216 | 0.225 | 0.253 | 0.171 | 0.173 | 1.09 | 0.713 | 0.722 | 0.898 | 0.922
13 | LCLC-97TM1 | 0.337 |  | 0.42 | 0.475 | 0.441 | 1.01 | 0.683 | 0.767 | 0.113 | 0.104 | 1.22 |  | 1.11 | 1.66 | 0.841
14 | HCC-827 | 0.938 | 0.895 | 0.934 | 1.02 | 0.869 | 0.483 | 0.608 | 0.771 | 0.265 | 0.187 | 0.189 | 0.179 | 0.19 | 0.152 | 0.197
15 | NCI-H1975 | 0.919 | 0.91 | 0.886 | 0.96 | 0.949 | 0.39 | 0.385 | 0.483 | 0.678 | 0.324 | 0.952 | 0.898 | 0.916 | 0.852 | 0.888

Source: the supplement of paper PMC10307832
